The numbers were not newly measured in patent US20100190824A1, “Novel Substituted Piperidones as HSP Inducers” (priority 2007, published 2010), which cites them from elsewhere.

Structures are written as SMILES.

The subject of data set [1] is rat orthotopic liver transplantation model. Conditions: donors treated; with vehicle all recipients died; cited from earlier work.
For the next data set, the system named is injured motoneurones. Conditions: cited from earlier work.
Data set [2] deals with permeability of blood brain barrier. The settings on record: vascular insult evoked by sub-arachnoidal autologous blood; cited from earlier work.
In data set [3] the test system is streptozotocin-induced neuropathy. The settings on record: cited from earlier work.

Consider `CC(=O)CCC=C(C)CC/C=C(\C)CC/C=C(\C)CCC=C(C)C` (mixture of isomers) [Geranylgeranyl acetone], for which the “7-day survival of the recipients” value in data set [1] is reported as ~90%.

`[O-][n+]1cccc(/C(Cl)=N/OC[C@H](O)CN2CCCCC2)c1` [BRX-220]: in the data set on injured motoneurones (14 days after injury, 21% in vehicle group), the motoneurones survived is recorded as 39%. In addition, the motoneurons survived in the data set with injured motoneurones (at 10 weeks, 15% in untreated group) was 42%.

On to `OC(CO/N=C(\Cl)c1cccnc1)CN1CCCCC1` (stereo not shown) [Bimoclomol], for which, in data set [2], the “reduction of size of cerebral tissue stained with Evans blue leakage” value is reported as 39%. Moreover, in data set [3], the “reduction of nerve conduction slowing, motor” value is recorded as 38%; the “reduction of nerve conduction slowing, sensory” value was 42%; the “retardation of elevated ischemic resistance” value is listed as 71%.
